Laboratory results reported in patent US20080275081A1, “Novel thrombomodulin expression promoters” (Kowa Company, Ltd., priority 2002, published 2008).

Legend:
[1] = test system: thrombomodulin (TM) antigen in normal human umbilical vein endothelial cells (HUVECs); test: TM antigen level in HUVECs by enzyme immunoassay after 24 h incubation with statin; format: cell-based; conditions: 10^-7 M to 10^-3 M, control (0.01% DMSO) = 100%, FIG. 1
Procedure: Normal human umbilical vein endothelial cells (HUVECs) were plated at a density of 2×10^5 cells/ well in a 24-well plate with HuMedia-EG2 medium (Kurabo Inc.) to which 2% (vol/vol) fetal bovine serum, 50 μg/ml gentamicin, 50 ng/ml amphotericin B, 10 ng/ml hEGF, 5 ng/ml hFGF-B, 1 μg/ml hydrocortisone and 10 μg/ml heparin were added. Subsequently, each test substance (pitavastatin, fluvastatin and pravastatin) was added to the medium at a final concentration of 10^−7 M to 10^−3 M, and incubated for 24 hours with 5% CO2 at 37° C. After the incubation, the cells were washed 3 times with a phosphate buffer solution (pH 7.4), and suspended in 50 mmol/L Tris-HCl (pH 7.4) that contained 0.15 mol/L NaCl, 0.5% Triton X-100 and 1 mmol/L benzamide hydrchloride, then, TM was extracted. The levels of TM antigen were measured by enzyme immunoassay using the monoclonal antibodies TMmAb 2, 11 and 20. In the case where the value of the control (containing an equivalent weight of DMSO (0.01%)) is assigned to 100%, the effects on the TM antigen levels existing in the cellular proteins due to the addition of each test substance were measured.

[2] = test system: TM m-RNA expression in HUVECs; test: TM mRNA expression in HUVECs by Northern blot, time course; format: cell-based, human; conditions: 10^-5 M, incubated for the indicated time, FIG. 2
Procedure: HUVECs were plated in HuMedia-EG2 medium (Kurabo Inc.) to which 2% (vol/vol) fetal bovine serum, 50 μg/ml gentamicin, 50 ng/ml amphotericin B, 10 ng/ml hEGF, 5 ng/ml hFGF-B, 1 μg/ml hydrocortisone and 10 μg/ml heparin were added. Subsequently, pitavastatin (at a final concentration of 10^−5 M) was added to the medium, and incubated for the indicated time with 5% CO2 at 37° C. Total RNA was extracted by using TRIZOL reagent (Life Technologies, Inc.) and the levels of TM m-RNA expression were measured by the Northern blot method, which is a usual method.

## O=C(O)C[C@H](O)C[C@H](O)/C=C/c1c(C2CC2)nc2ccccc2c1-c1ccc(F)cc1 [pitavastatin, (+)-(3R, 5S, 6E)-7-[2-cyclopropyl-4-(4-fluorophenyl)-3-quinolyl]-3,5-dihydroxy-6-heptenoic acid]
[1]
  ratio of the TM antigen level/cellular protein to the control: significant increase level
[2]
  ratio of the TM expression level (TM m-RNA) to the control, time course: increased drastically after 12 hours
